Measured values from PubChem BioAssay (NCI).
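Tested at 5 concentrations; 48 h exposure; 96-well plates; endpoints linearly interpolated, else capped at highest concentration. GI50 is the concentration that inhibits growth by half. TGI marks complete inhibition of growth.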

What was measured:
Assay in all cases: NCI-60 cell line screen, 48 h
[1] = test system: DU-145 prostate
[2] = test system: MALME-3M melanoma
[3] = test system: NCI-H23 lung
[4] = test system: OVCAR-5 ovarian
[5] = test system: RPMI-8226 leukemia
[6] = test system: SNB-75 CNS
[7] = test system: T-47D breast
[8] = test system: U251 CNS
[9] = test system: SK-MEL-5 melanoma
[10] = test system: UACC-257 melanoma

| SMILES | TGI [1] [µM] | TGI [2] [µM] | TGI [3] [µM] | TGI [4] [µM] | TGI [5] [µM] | TGI [6] [µM] | TGI [7] [µM] | TGI [8] [µM] | TGI [9] [µM] | TGI [10] [µM] | GI50 [1] [µM] | GI50 [2] [µM] | GI50 [3] [µM] | GI50 [4] [µM] | GI50 [5] [µM] | GI50 [9] [µM] | GI50 [6] [µM] | GI50 [7] [µM] | GI50 [8] [µM] | GI50 [10] [µM] |
| --- | --- | --- | --- | --- | --- | --- | --- | --- | --- | --- | --- | --- | --- | --- | --- | --- | --- | --- | --- | --- |
| C[C@]12CC[C@H]3[C@@H](CCC4=C[C@@H](OC5OCC(OC6OC(CO)C(O)C(O)C6O)C(O)C5O)CC[C@@]43C=O)[C@@]1(O)CCC2C1=CC(=O)OC1 (some centres undefined) | 1.44 | 2.19 | 1.08 | 3.78 | 2.75 | 12.8 | > 24.8 | 8.84 | – | – | – | – | – | – | – | – | – | – | – | – |
| O=C(Nc1ccccc1C(=O)Nc1nccs1)c1ccccc1 | > 100 | > 100 | > 100 | > 100 | > 100 | > 100 | 56.4 | > 100 | 67.3 | > 100 | – | – | – | – | – | – | – | – | – | – |
| Cc1[nH]n(-c2ccccc2)c(=O)c1C(=O)c1ccccc1 | > 25 | > 25 | > 25 | > 25 | > 25 | > 25 | > 25 | > 25 | > 25 | > 25 | > 25 | > 25 | > 25 | > 25 | > 25 | > 25 | > 25 | > 25 | 16.2 | > 25 |
| N#Cc1c(NCc2ccccc2)nc(NCc2ccccc2)c(C#N)c1-c1cccc(O)c1 | 34.4 | 32.5 | 37.4 | 48 | 22.6 | > 100 | > 100 | 15.4 | – | > 100 | 12.8 | 10.1 | 11 | 21.3 | 3.11 | – | 39.4 | 4.03 | 4.02 | > 100 |
| COc1cc(/C=C/c2cc(/C=C/c3ccc(O)c(OC)c3)[nH]c(=O)n2)ccc1O | 35.4 | > 100 | – | 28.4 | 5.68 | 12 | 36.9 | 13.5 | 36.1 | 17.9 | 4.91 | 3.91 | – | 10 | 2.1 | 3.7 | 1.72 | 6.5 | 3.15 | 3.36 |
| N#CC1CCc2c(c(-c3cn[nH]c3C(F)(F)F)nc3c(F)cc4[nH]ncc4c23)C1 (centres undefined) | 80.3 | 11.5 | 28.4 | 57.7 | 78.1 | 8.96 | 26.1 | > 100 | 9.79 | 74.5 | 9.06 | 3.31 | 5.36 | 13.7 | 8.4 | 2.83 | 3.38 | 3.06 | 15.1 | 12.9 |
| COc1cc(N=Nc2cccc(S(N)(=O)=O)c2)c2ccccc2c1N | 3.43 | 3.13 | 6.72 | 33.3 | 57.3 | 4.56 | > 61.2 | 22.5 | 3.3 | 3.37 | – | – | – | – | – | – | – | – | – | – |
| C#CCOc1cccc(Nc2ncc3ncn(C4CCN(C(=O)CCl)C4)c3n2)c1 (centres undefined) | > 62.5 | 56.2 | > 62.5 | > 62.5 | > 62.5 | > 62.5 | > 62.5 | > 62.5 | > 62.5 | > 62.5 | > 62.5 | 8.78 | > 62.5 | > 62.5 | > 62.5 | > 62.5 | > 62.5 | > 62.5 | > 62.5 | > 62.5 |
| O=C(Nc1cccc([N+](=O)[O-])c1)c1cc2ccccc2cc1O | > 49.6 | 2.26 | 3.65 | 10.3 | 1.06 | 55.2 | 7.88 | 9.27 | 3.56 | 5.23 | 3.09 | 0.376 | 0.72 | 2.55 | 0.146 | 1.14 | 2.84 | 2.47 | 1.48 | 0.881 |
| O=C(Nc1ccc(-c2ccnc(Nc3ccc(N4CCOCC4)cc3)n2)cc1)C1CCCN1 (centres undefined) | 37.4 | 23.1 | 32.4 | 30.7 | 24.7 | 12.5 | 38.7 | 21.6 | 18.9 | 22.8 | 7.14 | 6.71 | 12.1 | 14.6 | 4.61 | 3.31 | 1.96 | 14.7 | 3.05 | 8.99 |
| COc1ccc(/C=C/c2cnc3ccccc3n2)cc1OC | > 100 | > 100 | > 100 | > 100 | > 100 | > 100 | > 100 | > 100 | > 100 | > 100 | – | – | – | – | – | – | – | – | – | – |
| Cc1cc(Cl)ccc1NC(=O)NC(C)(C)COC(=O)Nc1cccc(Cl)c1 | > 100 | 50.3 | 28.4 | > 100 | 15.3 | 47.1 | > 100 | 19.3 | 25 | 42.5 | 11.2 | 9.6 | 3.66 | 8.1 | 3.26 | 6.7 | 11.3 | 5.55 | 4.56 | 8.23 |
| CC(C)N(Cc1ccccc1)S(=O)(=O)c1n[nH]c(C(C)(C)C)n1 | > 100 | > 100 | > 100 | > 100 | > 100 | > 100 | > 100 | > 100 | > 100 | > 100 | – | – | – | – | – | – | – | – | – | – |
| Cc1cc(S(=O)(=O)Nc2nc3cc(-c4ccsc4)sc3c(=O)n2N)c(S)cc1Cl | > 100 | > 100 | > 100 | > 100 | > 100 | > 100 | > 100 | > 100 | > 100 | > 100 | > 100 | > 100 | > 100 | > 100 | > 100 | 38.4 | > 100 | 28.8 | 34.1 | > 100 |
| Cc1cc(O)c2c(c1)C(=O)C(c1c(C)cc3c(c1O)C(=O)C1OC1C3=O)=CC2=O (centres undefined) | > 47.3 | 3.96 | 22.8 | 13 | 3.52 | 28.1 | > 100 | 20.6 | 19.7 | 11.3 | – | – | – | – | – | – | – | – | – | – |
